According to US9999614B2, “Combination for the prophylaxis and treatment of behavioural, mental, and cognitive disorders” (LTD “VALENTA-INTELLEKT”, priority 2012, dated 2018):

System: amnesia in mice, as caused by scopolamine
Assay: CPAR, model of amnesia caused by scopolamine
Format: in vivo
Conditions: scopolamine 1 mg/kg i.p.
Method: For this, the active substances Melatonin 3 mg/Memantin 10 mg, Melatonin 5 mg/Memantin 20 mg, Melatonin 10 mg/Memantin 20 mg were taken, and doses recommended for human beings were converted into doses adapted for mice according to the formula “(active substance/70(average weight of a human being))×7”. Then the compositions were dissolved in 5 mL of the solution and, according to the given formula, introduced to animals intraperitoneally once a day for 5 days.
The CPAR test is the main model for evaluating substance influences on formation and replication of short-time memory in a normal condition and in an abnormal condition, i.e., induced amnesia. The CPAR is the most informative method among the methods that are used today for evaluating efficiency of substances with influence on the CNS of mammals (see, “Manual for Experimental (Pre-Clinical) Studies of New Pharmacological Substances”, 2000). The CPAR (conditioned passive avoidance reflex in a dark, light chamber) was taught to the mice on the basis of electrodermal response according to the method proposed by Cumin et al. (1982) with due regard to the recommendations given by Mondadori et al. (1990). The installation for mice, as produced by Lafayette Instrument Co., USA, was a black chamber with the electrode floor and a white plastic platform that was arranged on the floor in the center of the chamber. The mice, one by one, were put onto the plastic platform. The animals went/jumped down onto the electrode floor where they received an electric current shock, i.e., punishment. Electric current was supplied after the time when an animal stood on the floor with all its four legs. The natural response of the animals is to go back to the current-free or safe platform. […] Tests for memorizing CPAR were conducted in successive time intervals after amnesic action. In a case where an animal went/jumped down onto the platform within 1 minute, it was recorded as having retrograde amnesia of the passive avoidance skill. The compositions were studied in comparison with Melatonin 5 mg (mono-use) and Memantin 10 mg (mono-use), according to the above formula for adapting to animal models.
The compositions under study were dissolved in 5 mL of the solution and, according to the above formula, introduced to the animals intraperitoneally, once a day for 5 days.

[1] = 1 day after teaching, Melatonin 5 mg, Memantin 10 mg mono-use

## CN1[C@@H]2C[C@@H](OC(=O)[C@H](CO)c3ccccc3)C[C@H]1[C@@H]1O[C@@H]12 [Scopolamine]
[1]
  Latent time of entering into the dark chamber: 72.3 ± 25.6 s
  Number of mice not entered into the dark chamber, %: 25%
3 days after teaching, Melatonin 5 mg, Memantin 10 mg mono-use
  Number of mice not entered into the dark chamber, %: 33.3%
7 days after teaching, Melatonin 5 mg, Memantin 10 mg mono-use
  Number of mice not entered into the dark chamber, %: 41.6%
10 days after teaching, Melatonin 5 mg, Memantin 10 mg mono-use
  Number of mice not entered into the dark chamber, %: 50%
In 24 hours, p<0.001
  CPAR amnesia observed, % of the animals: 90%
Agents i.p. once a day for 5 days, Melatonin 5 mg, Memantin 10 mg mono-use
  Number of mice taught to CPAR (%): 58.3%
